US20250134874A1, “PHARMACEUTICAL FORMULATIONS COMPRISING 3-({[(4R)-7-{METHYL[4-(PROPAN-2-YL)PHENYL]AMINO}-3,4-DIHYDRO-2H-1-BENZOPYRAN-4-YL]METHYL}AMINO)PYRIDINE-4-CARBOXYLIC ACID” (TACHYON THERAPEUTICS, INC., priority 2021, published 2025)

Test system: 301 cancer cell lines from different tumor types (OncoPanel; HD Biosciences)
Assay: 2D cell viability inhibition assay (CellTiter-Glo) in cancer cell line panel
Assay type: cell-based
Design: key to AUC: AUC as fraction of the no-inhibition area (dose range × 0–100 % of control)
Conditions: for Emax: in %
Description: In a larger screening study, compound 1 was evaluated across a broad cancer cell line panel (OncoPanel; HD Biosciences) composed of 301 cancer cell lines from different tumor types.
2D cell viability inhibition assays were performed in multiwell plates seeded with cells from the panel. After seeding, the plates were cultured overnight in a humidified incubator at 37° C. to promote adherence. Assays were initiated in individual wells by adding either DMSO as a vehicle control, growth media as a blank, or serially diluted compound 1 (10 μM to 0.0005 μM with 1:3 serial dilution). Cultures were incubated for 168 hours after which the number of viable cells in each test well was assessed using the CellTiter-Glo® Luminescent Cell Viability Assay. Luminescence readouts were performed using an EnVision® Multilabel Reader and the compound 1 readouts were normalized to the DMSO control readouts, expressed as a percent of the control. Outliers were flagged out by visual inspection. Percent of control was plotted against the corresponding compound 1 concentration and the absolute IC50 value was determined using four-parameter logistic non-linear regression as the concentration where inhibition was 50% of the control. For maximum inhibition <50%, the absolute IC50 was reported as >10. In addition to EC50 and IC50, AUC was determined and was normalized to the area corresponding to theoretical no-inhibition (the rectangular area defined by the compound dose range and 0 to 100 in y). Emax was recorded as the minimum in y with the compound dose range. For those cell lines where Emax>40, EC50 was manually set to 10 μM. A hierarchical clustering algorithm based on Euclidean distance between the standardized input values and “Ward.D” method as implemented in R hclust function was used to visualize the compound 1 cellular potency data. The sensitive/moderate/resistant calls for each cell line was determined by visually inspecting the resulting clustering dendrogram. All the analyses were done in R Core Team.

[1] = Homo sapiens, TE-5, TE5 cell line
[2] = Homo sapiens, TE-6, TE6 cell line
[3] = Homo sapiens, TE-9, TE9 cell line
[4] = Homo sapiens, TE-10, TE10 cell line
[5] = Homo sapiens, TE-11, TE11 cell line
[6] = Homo sapiens, TF-1, TF1 cell line
[7] = Homo sapiens, THP-1, THP1 cell line
[8] = Homo sapiens, TOV112D, TOV112D cell line
[9] = Homo sapiens, TT, T.T cell line
[10] = Homo sapiens, U2OS, U2OS cell line
[11] = Homo sapiens, U-87 MG, U87MG cell line
[12] = Homo sapiens, U-937, U937 cell line
[13] = Homo sapiens, UMUC3, UMUC3 cell line
[14] = Homo sapiens, WM 266-4, WM2664 cell line
[15] = Homo sapiens, WM-115, WM115 cell line
[16] = Homo sapiens, WSUDLCL2, WSUDLCL2 cell line

CC(C)c1ccc(N(C)c2ccc3c(c2)OCC[C@H]3CNc2cnccc2C(=O)O)cc1 [Compound 1, 3-({[(4R)-7-{methyl[4-(propan-2-yl)phenyl]amino}-3,4-dihydro-2H-1-benzopyran-4-yl]methyl}amino)pyridine-4-carboxylic acid]
IC50 (Homo sapiens, TALL-1, TALL1 cell line): 1.8 nM | EC50 [1]: 6.64 nM | IC50 [1]: 8.47 nM | EC50 [2]: 4.83 nM | IC50 [2]: 6.68 nM | EC50 [3]: 3.75 nM | IC50 [3]: 6.89 nM | EC50 [4]: 9.3 nM | IC50 [4]: 16.3 nM | EC50 [5]: 3.85 nM | IC50 [5]: 4.28 nM | IC50 (Homo sapiens, TE-15, 168 h, TE15, oesophagus, squamous cell carcinoma, 168 hours): > 10000 nM | EC50 [6]: 1.58 nM | IC50 [6]: 2.59 nM | EC50 [7]: 4.92 nM | IC50 [7]: 6.15 nM | EC50 [8]: 4.26 nM | IC50 [8]: 6.23 nM | EC50 [9]: 4.37 nM | IC50 [9]: 6.75 nM | EC50 [10]: 7.71 nM | IC50 [10]: 9.01 nM | EC50 [11]: ≥ 10000 nM | IC50 [11]: 14.7 nM | EC50 [12]: 2.73 nM | IC50 [12]: 2.55 nM | IC50 (Homo sapiens, UACC-812, 168 h, UACC812, breast, ductal carcinoma, 168 hours): > 10000 nM | EC50 [13]: 21.9 nM | IC50 [13]: 39.5 nM | IC50 (Homo sapiens, VCaP, 168 h, prostate, adenocarcinoma): > 10000 nM | EC50 [14]: ≥ 10000 nM | IC50 [14]: 27.5 nM | EC50 [15]: 2.5 nM | IC50 [15]: 478 nM | EC50 [16]: 4.21 nM | IC50 [16]: 5.67 nM | AUC (J82 cell line): 0.6749 | AUC (JEKO1 cell line): 0.1172 | AUC (JIMT1 cell line): 0.5519 | AUC (JURKAT cell line): 0.1171 | Emax (JURKAT cell line): 0.212 | AUC (K562 cell line): 0.275 | AUC (KALS1 cell line): 0.6559 | AUC (KARPAS422 cell line): 0.329 | Emax (KARPAS422 cell line): 8.084 | AUC (KASUMI1, haematopoietic and lymphoid tissue, acute myeloid leukaemia, 168 hours): 0.8823 | AUC (KATOIII cell line): 0.49 | AUC (KG1, haematopoietic and lymphoid tissue, acute myeloid leukaemia, 168 hours): 0.9592 | AUC (KM12 cell line): 0.3482 | Emax (KM12 cell line): 12.24 | AUC (KMS11 cell line): 0.3918 | Emax (KMS11 cell line): 9.983 | AUC (KNS62 cell line): 0.4761 | Emax (KNS62 cell line): 18.84 | AUC (KNS81 cell line): 0.6309 | IC50 (KNS81 cell line): > 10000 nM | AUC (KU1919 cell line): 0.3956 | Emax (KU1919 cell line): 14.57 | AUC (KURAMOCHI, ovary, undifferentiated carcinoma, 168 hours): 0.8742 | AUC (KYSE30 cell line): 0.4434 | Emax (KYSE30 cell line): 38.59 | AUC (KYSE70, oesophagus, squamous cell carcinoma, 168 hours): 0.6942 | AUC (KYSE150 cell line): 0.3052 | AUC (KYSE270 cell line): 0.3062 | AUC (KYSE410 cell line): 0.4156 | Emax (KYSE410 cell line): 21.4639 | AUC (KYSE510 cell line): 0.1998 | AUC (LNCAP cell line): 0.3974 | AUC (LOUCY cell line): 0.188 | EC50 (LOUCY cell line): 2.47 nM | IC50 (LOUCY cell line): 2.47 nM | AUC (LOVO cell line): 0.6362 | AUC (LS411N cell line): 0.3851 | Emax (LS411N cell line): 6.415 | AUC (LU65 cell line): 0.4091 | Emax (LU65 cell line): 12 | AUC (LU99, lung, large cell carcinoma, 168 hours): 0.79 | AUC (LUDLU1 cell line): 0.5307 | EC50 (LUDLU-1, LUDLU1 cell line): 12.6 nM | IC50 (LUDLU-1, LUDLU1 cell line): 25.8 nM | AUC (MALME3M, skin, NS, 168 hours): 0.9867 | AUC (MC116 cell line): 0.2527 | AUC (MCF7 cell line): 0.6592 | AUC (MDAMB157, breast, ductal carcinoma, 168 hours): 0.8362 | AUC (MDAMB175VII, breast, ductal carcinoma, 168 hours): 0.7385 | AUC (MDAMB231, breast, NS, 168 hours): 0.7262 | AUC (MDAMB361, breast, NS, 168 hours): 1.117 | AUC (MDAMB415, breast, NS, 168 hours): 0.9413 | AUC (MDAMB436, breast, NS, 168 hours): 0.8438 | AUC (MDAMB453 cell line): 0.4524 | Emax (MDAMB453 cell line): 21.95 | AUC (MDAMB468, breast, NS, 168 hours): 0.6972 | AUC (MESSA cell line): 0.4933 | Emax (MESSA cell line): 24.22 | AUC (MEWO, skin, NS, 168 hours): 0.7237 | AUC (MIAPACA2 cell line): 0.3322 | Emax (MIAPACA2 cell line): 9.711 | AUC (MKN1 cell line): 0.3945 | AUC (MKN45 cell line): 0.4427 | Emax (MKN45 cell line): 19.77 | AUC (MOLT4 cell line): 0.1376 | Emax (MOLT4 cell line): 0.6048 | AUC (MPP89 cell line): 0.6384 | IC50 (MPP89 cell line): > 10000 nM | AUC (MV411 cell line): 0.2163 | AUC (NAMALWA cell line): 0.2431 | EC50 (NAMALWA cell line): 3.27 nM | IC50 (NAMALWA cell line): 3.21 nM | IC50 (NCI-H1435, 168 h, NCIH1435, lung, non-small cell carcinoma, 168 hours): > 10000 nM | EC50 (NCI-H2023, NCIH2023 cell line): 2.84 nM | IC50 (NCI-H2023, NCIH2023 cell line): 3.03 nM | EC50 (NCI-H2172, NCIH2172 cell line): ≥ 10000 nM | IC50 (NCI-H2172, NCIH2172 cell line): 133 nM
